Measurements reported in paper PMC12126525, “Mechanism of ATP hydrolysis in the Hsp70 BiP nucleotide-binding domain” (Nature Communications, 2025).
Several values for one entry are separate records, joined by “and”; a condition that tells them apart may be missing. Equal entries are not always repeated.

Legend:
BiP NBD [1] = target: T1, BiP NBD (Homo sapiens, UniProt P11021); experiment: Equilibrium 2D methyl-TROSY NMR fingerprint spectra with ligands (ATP analogs, calcium); format: binding; design: His6 (N, cleaved yes); made in house; host or cells: E. coli BL21-(DE3)-Lemo, pET28a vector; conditions: 3.3 mM calcium, 10 mM magnesium
T1 sequence (P11021 19-406): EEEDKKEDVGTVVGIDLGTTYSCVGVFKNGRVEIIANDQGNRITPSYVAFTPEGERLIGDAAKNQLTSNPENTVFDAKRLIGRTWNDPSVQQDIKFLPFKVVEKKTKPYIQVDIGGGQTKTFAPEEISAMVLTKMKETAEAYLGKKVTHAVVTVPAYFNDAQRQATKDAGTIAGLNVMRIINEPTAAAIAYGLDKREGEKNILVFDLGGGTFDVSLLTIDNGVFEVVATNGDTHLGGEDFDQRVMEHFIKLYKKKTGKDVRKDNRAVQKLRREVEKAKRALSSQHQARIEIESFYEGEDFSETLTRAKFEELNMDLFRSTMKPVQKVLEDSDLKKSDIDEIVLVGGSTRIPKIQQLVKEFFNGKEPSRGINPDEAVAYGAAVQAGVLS
Method: First, we probed calcium binding to ADP-bound NBD by NMR equilibrium experiments. […] (Supplementary Fig. 15d). […] (Supplementary Fig. 16).
AMPPNP (adenylyl imidodiphosphate; Jena-bioscience), AMPPCP (adenylyl methylenediphosphate; Jena-bioscience) and ATP-γ-S (adenosine 5’-(gamma-thiotriphosphate; Jena-bioscience) were dissolved in the HKM reaction buffer (25 mM HEPES, pH 7.5, 150 mM KCl and 10 mM MgCl2) at a concentration of 50 mM directly before to be mixed with the BiP NBD sample. Samples were prepared fresh before each use to minimize the known instability of these analogs that undergo slow hydrolysis in solution.
Supplementary Figure 7. Analysis of the BiP NBD ATP-bound state. a, Combined methyl chemical shift differences between the APD·Pi-bound and the ATP-bound state of BiP NBD in-cyclo. The magnitude of 1 and 1.5 SDs are indicated by an orange and a red line, respectively. b, Overlay of 9 crystal structures of BiP NBD in presence of different nucleotides (colored sticks). c, Backbone root means square deviation (RMSD - Å) between the structures shown in (b) and the NBD apo state (PDB 3LDN). d, 2D [13C,1H]-TROSY spectrum of methyl-labeled BiP NBD in equilibrium with the ATP analogs AMPPNP (green), AMPPCP (orange) or ATP-γ-S (yellow), overlayed with the spectrum in-cyclo (pink).
State- and sequence-specific resonance assignments are indicated for the ADP-bound (light blue), ADP·Pi-bound (dark blue) and the ATP-bound (red) states in-cyclo.
(1 picture or pasted object on this page, not shown here)
Supplementary Figure 15. Mapping of calcium binding to BiP NBD. a, Selected details from published structures of BiP. From left to right: yeast BiP(NBD)-Mg2+-ADP (PDB 3QFU), human BiP(NBD)-Mg2+- ADP·Pi (PDB 5EVZ), human BiP(NBD)-Ca2+-ADP (PDB 6ZYH). b, Selected sections of 2D [13C,1H]-methyl-TROSY spectra of residue val50cg1 or Ile52cd1 for the equilibrium experiments of NBD apo (grey), NBD with 5 mM Pi (green), NBD with 1 mM ADP (light blue), NBD with 1 mM ADP·Pi (dark blue), NBD with 1 mM ADP-Ca2+ (dark-pink).and NBD with 3.3 mM calcium ([Mg2+]/[Ca2+]=3) (light-pink). c, Combined methyl chemical shift differences between the BiP NBD APD and the ADP-Ca2+-bound state. The magnitude of 1 and 1.5 SDs are indicated by a light blue and a dark blue line. d, Structure of NBD in […]
the ADP-Ca-bound state (PDB 6ZYH).

BiP NBD [2] = target: T1, BiP NBD; experiment: Single turn-over assay (anion exchange quantification of ATP/ADP); format: biochemical; design: His6 (N, cleaved yes); made in house; host or cells: E. coli BL21-(DE3)-Lemo, pET28a vector
Method: We next set out to benchmark these kinetic parameters to independently measured values. Out of the 11 free parameters of the functional cycle, 3 parameters can be commonly accessed with classical experiments (kcat, koff2 and koff5 ). We benchmarked kcat with standard single-turn over experiments[44],[46]. For these experiments, the NBD·ATP complex is initially formed by incubation of an excess of ATP with BiP NBD at 4 °C. At this temperature, it is generally assumed that the hydrolysis rate can be neglected. Unbound nucleotides were removed by gel filtration and the purified NBD·ATP complex was flash frozen. The complex was then incubated at 37 °C for variable time, after which the reaction was quenched by addition of HCl. This step unfolds the NBD, thus immediately stopping the reaction and releasing all educts and products into solution. From the resulting samples, the [ATP]/[ADP] ratio was determined by anion exchange chromatography.
The single turnover experiment starts from a batch of stoichiometrically assembled NBD^ATP complex. ATP hydrolysis and ATP dissociation occur on parallel kinetic pathways, according to Eqs. (1) and (2). At very low protein concentrations [NBD^ATP]≪KD1 , rebinding of ATP after dissociation, as well as the buildup of the products ADP and Pi, can be neglected and the observed ATP decay follows the analytical equation35 ATP/ATP0=koff1/kcat*+kcat/kcat*e^−kcat*t with36 kcat*=kcat+koff1
At proteins concentrations [NBD^ATP]≳KD1 , as it was used in our experiments, ATP rebinding after dissociation cannot be neglected, which is competitive with the product ADP that builds up over time. […]
The ATPase activity of BiP NBD was determined under single-turnover conditions as previously described with minor modifications of the protocol. The main modification was to replace the radioactivity-based detection by a label free anion-exchange based quantification. […] The relative ATP/ADP ratio was determined using an anion chromatography-based assay.

SMILES	calcium binding to ADP-bound NBD (CSPs) (BiP NBD [1])	kcat* (single turn-over) (BiP NBD [2]; 37 °C, monoexponential fit)	kcat single turn-over average (BiP NBD [2]; Supplementary Fig 11b) [s⁻¹]	kcat single turn-over (BiP NBD [2]; Supplementary Fig 11b, replicates [1]-[6])
[Ca+2] [calcium]	calcium binding occurred			
Nc1ncnc2c1ncn2[C@@H]1O[C@H](COP(=O)(O)OP(=O)(O)OP(=O)(O)O)[C@@H](O)[C@H]1O [ATP]		0.071 s⁻¹ and 0.071 ± 0.02 s⁻¹	0.071	0.085 s⁻¹ and 0.070 s⁻¹ and 0.057 s⁻¹ and 0.075 s⁻¹ and 0.073 s⁻¹
